From US7598273B2, “Inhibitors of the gastric H+, K+-ATPase with enhanced therapeutic properties” (Auspex Pharmaceuticals, Inc, priority 2005, dated 2009)

Experiments:
[1] = human, topical or ocular
Method: Human liver microsomal stability assays were conducted at 1 mg per mL protein concentration with an NADPH-generating system (1.3 mM NADPH, 3.3 mM glucose 6-phosphate and 0.4 U per mL glucose 6-phosphate dehydrogenase) and 3.3 mM MgCl2. Test compounds were added as acetonitrile solutions (final assay concentration of acetonitrile should be <1%) and incubated at 37° C. with shaking. Aliquots (150 μL) were removed at 0, 15, 30, 60, and 120 minutes, and ice cold acetonitrile (300 μL) was added to stop the reactions. Samples were centrifuged at 4000 RPM for 5 minutes to precipitate all proteins. Supernatants were transferred to microcentrifuge tubes and stored for LC/MS/MS analysis of the degradation half-life of the test compounds.

pylorus-ligated rats = test: Rat gastric activity, pylorus ligation (antisecretory activity); assay type: in vivo; details: PO 30 mg/kg, 30 minutes before ligation, gastric contents collected 4 hours later, Wistar male rats
Method: Compounds of formula (1) according to the present invention were evaluated for possible antisecretory activity in pylorus-ligated rats. […] Wistar derived male rats weighing 210±10 g were fasted overnight. […] Animals were sacrificed 4 hours later and the gastric contents were collected. After centrifugation, the volume of each sample was measured and acidity was determined by titration.

[2] = cited from earlier work

| Compound | increase in the degradation half-life, as compared to the non-isotopically enriched drug [1] | further results |
| --- | --- | --- |
| [2H]c1nc(C([2H])([2H])[S+]([O-])c2nc3cc(OC([2H])([2H])[2H])ccc3[nH]2)c(C([2H])([2H])[2H])c(OC([2H])([2H])[2H])c1C([2H])([2H])[2H] (centres unmarked) [Example 10, d15-5-methoxy-2-(4-methoxy-3,5-dimethyl-pyridin-2-ylmethane-sulfinyl)-1H-benzimidazole] | ≥ 10% | degradation half-life increased as compared to non-isotopically enriched omeprazole [1]: 20-60%; % inhibition relative to vehicle controls: Acidity (μEq/mL) (pylorus-ligated rats): 89%; % inhibition relative to vehicle controls: Total Acid Output (μEq/4 hours) (pylorus-ligated rats): 95%; % inhibition relative to vehicle controls: Volume (mL/4 hours) (pylorus-ligated rats): 55% |
| [2H]c1nc(C[S+]([O-])c2nc3cc(OC([2H])([2H])[2H])ccc3[nH]2)c(C([2H])([2H])[2H])c(OC([2H])([2H])[2H])c1C([2H])([2H])[2H] (centres unmarked) [Example 11, d13-5-methoxy-2-(4-methoxy-3,5-dimethylpyridin-2-ylmethane-sulfinyl)-1H-benzimidazole] | ≥ 10% | degradation half-life increased as compared to non-isotopically enriched omeprazole [1]: 20-60% |
| [2H]c1nc(C[S+]([O-])c2nc3cc(OC([2H])([2H])[2H])ccc3[nH]2)c(C([2H])([2H])[2H])c(OC)c1C([2H])([2H])[2H] (centres unmarked) [Example 13, d10-5-methoxy-2-(4-methoxy-3,5-dimethylpyridin-2-ylmethane-sulfinyl)-1H-benzimidazole] | ≥ 10% | – |
| [2H]c1nc(C([2H])([2H])[S+]([O-])c2nc3cc(OC([2H])([2H])[2H])ccc3[nH]2)c(C([2H])([2H])[2H])c(OC)c1C([2H])([2H])[2H] (centres unmarked) [Example 14, d12-5-methoxy-2-(4-methoxy-3,5-dimethylpyridin-2-ylmethane-sulfinyl)-1H-benzimidazole] | ≥ 10% | – |
| [2H]c1nc(C([2H])([2H])[S+]([O-])c2nc3cc(OC)ccc3[nH]2)c(C([2H])([2H])[2H])c(OC([2H])([2H])[2H])c1C([2H])([2H])[2H] (centres unmarked) [Example 18, d12-5-methoxy-2-(4-methoxy-3,5-dimethylpyridin-2-ylmethane-sulfinyl)-1H-benzimidazole] | ≥ 10% | – |
| [2H]c1nc(C[S+]([O-])c2nc3cc(OC)ccc3[nH]2)c(C([2H])([2H])[2H])c(OC)c1C([2H])([2H])[2H] (centres unmarked) [Example 19, d7-5-methoxy-2-(4-methoxy-3,5-dimethylpyridin-2-ylmethane-sulfinyl)-1H-benzimidazole] | ≥ 10% | – |
| [2H]c1nc(C[S+]([O-])c2nc3cc(OC)ccc3[nH]2)c(C([2H])([2H])[2H])c(OC([2H])([2H])[2H])c1C([2H])([2H])[2H] (centres unmarked) [Example 20, d10-5-methoxy-2-(4-methoxy-3,5-dimethylpyridin-2-ylmethane-sulfinyl)-1H-benzimidazole] | ≥ 10% | – |
| [2H]c1nc(C([2H])([2H])[S+]([O-])c2nc3cc(OC)ccc3[nH]2)c(C([2H])([2H])[2H])c(OC)c1C([2H])([2H])[2H] (centres unmarked) [Example 21, d9-5-methoxy-2-(4-methoxy-3,5-dimethylpyridin-2-ylmethane-sulfinyl)-1H-benzimidazole] | ≥ 10% | – |
| [2H]C([2H])([2H])Oc1ccc2[nH]c([S+]([O-])C([2H])([2H])c3ncc(C)c(OC([2H])([2H])[2H])c3C)nc2c1 (centres unmarked) [Example 25, d8-5-methoxy-2-(4-methoxy-3,5-dimethylpyridin-2-ylmethane-sulfinyl)-1H-benzimidazole] | ≥ 10% | – |
| [2H]C([2H])([2H])Oc1ccc2[nH]c([S+]([O-])Cc3ncc(C)c(OC)c3C)nc2c1 (centres unmarked) [Example 26, d3-5-methoxy-2-(4-methoxy-3,5-dimethylpyridin-2-ylmethane-sulfinyl)-1H-benzimidazole] | ≥ 10% | – |
| [2H]C([2H])([2H])Oc1ccc2[nH]c([S+]([O-])Cc3ncc(C)c(OC([2H])([2H])[2H])c3C)nc2c1 (centres unmarked) [Example 27, d6-5-methoxy-2-(4-methoxy-3,5-dimethylpyridin-2-ylmethane-sulfinyl)-1H-benzimidazole] | ≥ 10% | – |
| [2H]C([2H])([2H])Oc1ccc2[nH]c([S+]([O-])C([2H])([2H])c3ncc(C)c(OC)c3C)nc2c1 (centres unmarked) [Example 28, d5-5-methoxy-2-(4-methoxy-3,5-dimethylpyridin-2-ylmethane-sulfinyl)-1H-benzimidazole] | ≥ 10% | – |
| [2H]C([2H])([2H])Oc1c(C)cnc(C([2H])([2H])[S+]([O-])c2nc3cc(OC)ccc3[nH]2)c1C (centres unmarked) [Example 32, d5-5-methoxy-2-(4-methoxy-3,5-dimethylpyridin-2-ylmethane-sulfinyl)-1H-benzimidazole] | ≥ 10% | – |
| [2H]C([2H])([2H])Oc1c(C)cnc(C[S+]([O-])c2nc3cc(OC)ccc3[nH]2)c1C (centres unmarked) [Example 34, d3-5-methoxy-2-(4-methoxy-3,5-dimethylpyridin-2-ylmethane-sulfinyl)-1H-benzimidazole] | ≥ 10% | – |
| [2H]c1nc(C[S@+]([O-])c2nc3cc(OC([2H])([2H])[2H])ccc3[nH]2)c(C([2H])([2H])[2H])c(OC([2H])([2H])[2H])c1C([2H])([2H])[2H] [Example 39, d13-(S)-5-methoxy-2-(4-methoxy-3,5-dimethylpyridin-2-ylmethane-sulfinyl)-1H-benzimidazole] | ≥ 10% | degradation half-life increased as compared to non-isotopically enriched omeprazole [1]: 20-60% |
| COc1ccc2nc([S@@+]([O-])Cc3ncc(C)c(OC)c3C)[nH]c2c1 [esomeprazole, (S)-5-methoxy-2-(4-methoxy-3,5-dimethylpyridin-2-ylmethane-sulfinyl)-1H-benzimidazole] | – | ratio of AUC in Poor metabolizers to AUC in the rest of the population (extensive metabolizers) ([2]; at steady state, CYP2C19 poor vs extensive metabolizers): approximately 2; half-life in human plasma higher than that of omeprazole ([2]; human plasma, relative to omeprazole): 20% |
